For data set [1], the target named is T1, human 5-hydroxytryptamine-2C (h5-HT2C) receptor (Homo sapiens, UniProt P28335).
T1 construct: expressed in transfected cells; host or cells: CHO (Chinese Hamster Ovary) cells; membranes
T1 sequence (P28335 33-458): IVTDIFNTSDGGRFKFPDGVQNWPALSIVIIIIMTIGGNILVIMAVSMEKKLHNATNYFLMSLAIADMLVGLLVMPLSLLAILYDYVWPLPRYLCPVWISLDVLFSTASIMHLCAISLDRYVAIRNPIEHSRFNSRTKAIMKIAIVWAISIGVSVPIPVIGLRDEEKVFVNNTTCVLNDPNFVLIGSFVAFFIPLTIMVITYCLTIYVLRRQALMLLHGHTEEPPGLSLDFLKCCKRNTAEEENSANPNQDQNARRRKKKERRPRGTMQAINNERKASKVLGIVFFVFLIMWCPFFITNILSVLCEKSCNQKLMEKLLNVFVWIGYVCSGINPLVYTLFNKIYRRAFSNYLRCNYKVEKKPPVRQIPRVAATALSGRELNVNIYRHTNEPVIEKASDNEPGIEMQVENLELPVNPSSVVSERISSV
The data set can be described thus: 5-HT2C binding: [125I]DOI displacement in membranes of transfected CHO cells.

Setting [2] is: read-out: 5-HT2C Binding Ki avg.

Where a name gives a salt, the structure may show the parent alone. Read-outs that look alike come from different tables or passages of the source. Bounds are passed on as bounds.

Regarding `NCC1Oc2cc(Cl)cc(-c3ccccc3F)c2O1` (stereo not shown) [Compound I-93, [6-Chloro-4-(2-fluoro-phenyl)-benzo[1,3]dioxol-2-yl]-methylamine], the Ki (usually the dissociation constant of the complex between target and ligand, obtained from inhibition or displacement) in data set [1] (setting [2]) lay within 50 to 200 nM.

On to `Cc1cc(Cl)ccc1-c1cc(Cl)cc2c1O[C@@H](CN)CO2` [Compound I-65, (2S)-[6-Chloro-8-(4-chloro-2-methyl-phenyl)-2,3-dihydro-benzo[1,4]dioxin-2-yl]-methylamine], for which, in data set [1] (setting [2]), the Ki is under 50 nM. For the compound `COc1ccc(OC)c(-c2cc(Cl)cc3c2OC(CN)O3)c1` (stereo not shown) [Compound I-100, [6-Chloro-4-(2,5-dimethoxy-phenyl)-benzo[1,3]dioxol-2-yl]-methylamine], in data set [1] (setting [2]), the Ki is over 200 nM. Same read-out and setting: with `NCC1Oc2cc(F)cc(-c3ccccc3)c2O1` (stereo not shown) [Compound I-77, 1-(6-Fluoro-4-phenyl-1,3-benzodioxol-2-yl)methanamine] the figure was 50 to 200 nM; with `COc1ccccc1-c1cc(Cl)cc2c1OC(CN)O2` (stereo not shown) [Compound I-92, [6-Chloro-4-(2-methoxy-phenyl)-benzo[1,3]dioxol-2-yl]-methylamine], 50 to 200 nM. As to `C[C@]1(CN)COc2cccc(-c3ccccc3)c2O1` [Compound I-48, {[(2S)-2-Methyl-8-phenyl-2,3-dihydro-1,4-benzodioxin-2-yl]methyl}amine], the inhibitory constant (Ki) in data set [1] (setting [2]) was over 200 nM. As to `COc1ccc(Cl)cc1-c1cc(Cl)cc2c1OC(CN)O2` (stereo not shown) [Compound I-94, [6-Chloro-4-(2-methoxy-5-chloro-phenyl)-benzo[1,3]dioxol-2-yl]-methylamine], the inhibition constant (Ki) in data set [1] (setting [2]) is over 200 nM. The same measure, in the same setting: the result for `NC[C@H]1COc2cccc(-c3ccccc3Cl)c2O1` [Compound I-56, 1-[(2S)-8-(2-CHLOROPHENYL)-2,3-DIHYDRO-1,4-BENZODIOXIN-2-YL]METHANAMINE] reads under 50 nM; that for `Cc1ccccc1-c1c(Cl)ccc2c1O[C@@H](CN)CO2` [Compound I-72, ((2S)-7-Chloro-8-o-tolyl-2,3-dihydrobenzo[b][1,4]dioxin-2-yl)methanamine], under 50 nM; that for `CCNCC1Oc2cc(F)cc(-c3ccccc3Cl)c2O1` (stereo not shown) [Compound I-88, N-{[4-(2-Chlorophenyl)-6-fluoro-1,3-benzodioxol-2-yl]methyl}ethanamine], 50 to 200 nM. On the same count and under the same terms, with `C[C@]1(CN)COc2cccc(-c3cccc(Cl)c3)c2O1` [Compound I-50, {[(2S)-8-(3-Chlorophenyl)-2-methyl-2,3-dihydro-1,4-benzodioxin-2-yl]methyl}amine] the figure was over 200 nM.

For the compound `C[C@]1(CN)COc2cccc(-c3ccsc3)c2O1` [Compound I-53, {[(2S)-2-Methyl-8-thien-3-yl-2,3-dihydro-1,4-benzodioxin-2-yl]methyl}amine], in data set [1] (setting [2]), the inhibitory constant (Ki) is over 200 nM. The same measure, in the same setting: with `NCC1Oc2cc(Cl)cc(-c3cc(F)ccc3F)c2O1` (stereo not shown) [Compound I-99, [6-Chloro-4-(2,5-difluoro-phenyl)-benzo[1,3]dioxol-2-yl]-methylamine] the figure was 50 to 200 nM; with `NCC1Oc2cc(F)cc(-c3ccc(Cl)cc3)c2O1` (stereo not shown) [Compound I-79, 1-[4-(4-Chloro-phenyl)-6-fluoro-1,3-benzodioxol-2-yl]methanamine], 50 to 200 nM. With `CSc1ccc2c(c1)C(N1CCN(C)CC1)Cc1ccccc1S2` (stereo not shown) [Methiothepin, reference compound], in data set [1] (reference compounds, 95% confidence interval in the next column, read-out: Ki), the Ki is 4.6 nM. On to `CN(C)CC1Oc2cc(F)cc(-c3ccccc3Cl)c2O1` (stereo not shown) [Compound I-89, 1-[4-(2-chlorophenyl)-6-fluoro-1,3-benzodioxol-2-yl]-N,N-dimethylmethanamine], for which, in data set [1] (setting [2]), the inhibition constant Ki fell in the range of 50 to 200 nM. For `COc1cccc(-c2cc(Cl)cc3c2OC(CN)O3)c1OC` (stereo not shown) [Compound I-95, [6-Chloro-4-(2,3-dimethoxy-phenyl)-benzo[1,3]dioxol-2-yl]-methylamine], the Ki in data set [1] (setting [2]) lay in the range of 50 to 200 nM. For `NCC1Oc2cc(F)cc(-c3ccccc3Cl)c2O1` (stereo not shown) (as salt: hydrochloride) [Compound I-84, 1-[4-(2-Chloro-phenyl)-6-fluoro-1,3-benzodioxol-2-yl]methanamine], the melting point (in general, the temperature of the solid-liquid transition) fell in the range of 192 to 194 °C.

`NCC1Oc2cc(Cl)cc(-c3cc(Cl)ccc3Cl)c2O1` (stereo not shown) (as salt: hydrochloride) [Compound I-98, [6-Chloro-4-(2,5-dichloro-phenyl)-benzo[1,3]dioxol-2-yl]-methylamine]: the melting point was 246 to 248 °C. Consider `NCC1COc2cccc(-c3cccc(F)c3F)c2O1` (stereo not shown) (as salt: fumarate) [Compound I-13, {[8-(2,3-Difluorophenyl)-2,3-dihydro-1,4-benzodioxin-2-yl]methyl}amine], for which the melting point is 189 to 190 °C. The compound `C[C@]1(CN)COc2cccc(-c3ccsc3)c2O1` (as salt: fumarate) [Compound I-53, {[(2S)-2-Methyl-8-thien-3-yl-2,3-dihydro-1,4-benzodioxin-2-yl]methyl}amine] returned a melting point of 158 to 161 °C. Still for that read-out and setting: with `C[C@]1(CN)COc2cccc(-c3cccc(Cl)c3)c2O1` (as salt: fumarate) [Compound I-50, {[(2S)-8-(3-Chlorophenyl)-2-methyl-2,3-dihydro-1,4-benzodioxin-2-yl]methyl}amine] the figure was 110 to 113 °C; with `CNCC1COc2cccc(-c3cc(F)ccc3F)c2O1` (stereo not shown) (as salt: fumarate) [Compound I-29, {[8-(2,5-Difluorophenyl)-2,3-dihydro-1,4-benzodioxin-2-yl]methyl}methylamine], 193 to 194 °C. Still for that read-out and setting: with `C[C@]1(CN)COc2cccc(-c3ccc(Cl)cc3)c2O1` (as salt: fumarate) [Compound I-51, {[(2S)-8-(4-Chlorophenyl)-2-methyl-2,3-dihydro-1,4-benzodioxin-2-yl]methyl}amine] the figure was 155 to 158 °C; with `NC[C@H]1COc2cc(Cl)cc(-c3ccccc3C(F)(F)F)c2O1` (as salt: hydrochloride) [Compound I-62, (2S)-[6-Chloro-8-(2-trifluoromethyl-phenyl)-2,3-dihydro-benzo[1,4]dioxin-2-yl]-methylamine], 231 to 233 °C. Same read-out and setting: with `NC[C@H]1COc2cc(Cl)cc(-c3ccccc3F)c2O1` (as salt: hydrochloride) [Compound I-59, (2S)-[6-Chloro-8-(2-fluoro-phenyl)-2,3-dihydro-benzo[1,4]dioxin-2-yl]-methylamine] the figure was 176 to 178 °C; with `Cc1ccccc1-c1cc(Cl)cc2c1O[C@@H](CN)CO2` (as salt: hydrochloride) [Compound I-60, (2S)-[6-Chloro-8-(2-methyl-phenyl)-2,3-dihydro-benzo[1,4]dioxin-2-yl]-methylamine], over 245 °C; with `COc1ccccc1-c1cccc2c1OC(CN)CO2` (stereo not shown) (as salt: fumarate) [Compound I-5, {[8-(2-Methoxyphenyl)-2,3-dihydro-1,4-benzodioxin-2-yl]methyl}amine], 186 to 187 °C.

Turning to `NCC1Oc2cc(Cl)cc(-c3ccccc3F)c2O1` (stereo not shown) (as salt: salt) [Compound I-93, [6-Chloro-4-(2-fluoro-phenyl)-benzo[1,3]dioxol-2-yl]-methylamine], the melting point was over 250 °C. Compound `CNCC1COc2cccc(-c3cccc(F)c3F)c2O1` (stereo not shown) (as salt: fumarate) [Compound I-27, {[8-(2,3-Difluorophenyl)-2,3-dihydro-1,4-benzodioxin-2-yl]methyl}methylamine] had a melting point of 181 to 182 °C. Still for that read-out and setting: with `NCC1COc2cccc(-c3cccc(Cl)c3Cl)c2O1` (stereo not shown) (as salt: fumarate) [Compound I-6, {[8-(2,3-Dichlorophenyl)-2,3-dihydro-1,4-benzodioxin-2-yl]methyl}amine] the figure was 211 to 212 °C; with `Cc1ccccc1-c1cc(F)cc2c1OC(CN)O2` (stereo not shown) (as salt: hydrochloride) [Compound I-80, 1-[4-(2-Methyl-phenyl)-6-fluoro-1,3-benzodioxol-2-yl]methanamine], 197 to 200 °C; with `Clc1ccccc1-c1cccc2c1OC(CNCC1CC1)CO2` (stereo not shown) (as salt: fumarate) [Compound I-41, {[8-(2-Chlorophenyl)-2,3-dihydro-1,4-benzodioxin-2-yl]methyl}(cyclopropylmethyl)-amine], 138 to 140 °C. Same read-out and setting: the result for `NC[C@H]1COc2cccc(-c3ccccc3C(F)(F)F)c2O1` (as salt: fumarate) [Compound I-57, 1-{(2S)-8-[2-(trifluoromethyl)phenyl]-2,3-dihydro-1,4-benzodioxin-2-yl}methanamine] reads 205 to 206 °C; that for `COc1ccc(OC)c(-c2cc(Cl)cc3c2OC(CN)O3)c1` (stereo not shown) (as salt: hydrochloride) [Compound I-100, [6-Chloro-4-(2,5-dimethoxy-phenyl)-benzo[1,3]dioxol-2-yl]-methylamine], 225 to 227 °C. Same read-out and setting: the result for `NC[C@H]1Oc2cc(F)cc(-c3c(Cl)cccc3Cl)c2O1` (as salt: hydrochloride) [Compound I-85, 1-[(2S)-4-(2,6-dichlorophenyl)-6-fluoro-1,3-benzodioxol-2-yl]methanamine] reads 224 to 225 °C. In turn, `NC[C@H]1COc2cc(Cl)cc(-c3ccc(Cl)cc3Cl)c2O1` (as salt: hydrochloride) [Compound I-64, (2S)-[6-Chloro-8-(2,4-dichloro-phenyl)-2,3-dihydro-benzo[1,4]dioxin-2-yl]-methyl amine] came in with a melting point of 140 °C.

The values are drawn from patent publication US20060241172A1, “Benzodioxane and benzodioxolane derivatives and uses thereof” (Wyeth, priority 2005, published 2006).
